Test results published in PubChem BioAssay AID2060897 (Molecular Pharmacology Branch, DTP, NCI, 2025).

System: 966289-007-R4-J1-PDC complex spheroid viability
Assay: Anticancer human tumor 966289-007-R4-J1-PDC patient-derived pancreatic adenocarcinoma cell line growth inhibition [RAS]
Details: for IC50: curve of first compound; for viability, T/C: stronger effect = lower value
Outline: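 Agents were tested in combination matrices in half-log decrements from a top concentration at or near clinical Cmax (10 microM if undetermined). Targets were multi-cell spheroids of tumour lines plus HUVEC and MSC stromal cells.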

[1] = second compound 0.00316 µM, first compound 0.0316 µM
[2] = second compound 0.00316 µM, first compound 0.1 µM
[3] = second compound 0.00316 µM, first compound 0.316 µM
[4] = second compound 0.00316 µM, first compound 1 µM
[5] = second compound 0.01 µM, first compound 0.0316 µM
[6] = second compound 0.01 µM, first compound 0.1 µM
[7] = second compound 0.01 µM, first compound 0.316 µM
[8] = second compound 0.01 µM, first compound 1 µM
[9] = second compound 0.0316 µM, first compound 0.0316 µM
[10] = second compound 0.0316 µM, first compound 0.1 µM
[11] = second compound 0.0316 µM, first compound 0.316 µM
[12] = second compound 0.0316 µM, first compound 1 µM
[13] = second compound 0.1 µM, first compound 0.0316 µM
[14] = second compound 0.1 µM, first compound 0.1 µM
[15] = second compound 0.1 µM, first compound 0.316 µM
[16] = second compound 0.1 µM, first compound 1 µM
[17] = second compound 0.316 µM, first compound 0.0316 µM
[18] = second compound 0.316 µM, first compound 0.1 µM
[19] = second compound 0.316 µM, first compound 0.316 µM
[20] = second compound 0.316 µM, first compound 1 µM
[21] = second compound 1 µM, first compound 0.0316 µM
[22] = second compound 1 µM, first compound 0.1 µM
[23] = second compound 1 µM, first compound 0.316 µM
[24] = second compound 1 µM, first compound 1 µM
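Note: spheroids exposed to agents for one week before readout.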
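Throughout, for viability, T/C: percent viability relative to DMSO vehicle control wells as 100%.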

## CC(Nc1ccc2c(c1)OCCn1cc(N3C(=O)OCC3C(F)F)nc1-2)C(N)=O (centres undefined) + C=CC(=O)N1CCN(c2nc(OCC3CCCN3C)nc3c(F)c(-c4nc(N)cc(C)c4C(F)(F)F)c(Cl)cc23)C(C)C1
Second compound 0.00316 µM
  IC50: > 10000 nM
Second compound 0.01 µM
  IC50: > 10000 nM
Second compound 0.0316 µM
  IC50: > 10000 nM
Second compound 0.1 µM
  IC50: > 10000 nM
Second compound 0.316 µM
  IC50: > 10000 nM
Second compound 1 µM
  IC50: > 10000 nM
[1]
  viability, T/C: 96.2%
[2]
  viability, T/C: 103%
[3]
  viability, T/C: 96.3%
[4]
  viability, T/C: 96.4%
Second compound 0.00316 µM, first compound 3.16 µM
  viability, T/C: 101%
Second compound 0.00316 µM, first compound 10 µM
  viability, T/C: 86.1%
[5]
  viability, T/C: 89.8%
[6]
  viability, T/C: 112%
[7]
  viability, T/C: 115%
[8]
  viability, T/C: 102%
Second compound 0.01 µM, first compound 3.16 µM
  viability, T/C: 97.4%
Second compound 0.01 µM, first compound 10 µM
  viability, T/C: 86.9%
[9]
  viability, T/C: 99.8%
[10]
  viability, T/C: 110%
[11]
  viability, T/C: 114%
[12]
  viability, T/C: 111%
Second compound 0.0316 µM, first compound 3.16 µM
  viability, T/C: 93.2%
Second compound 0.0316 µM, first compound 10 µM
  viability, T/C: 84.1%
[13]
  viability, T/C: 95.8%
[14]
  viability, T/C: 111%
[15]
  viability, T/C: 115%
[16]
  viability, T/C: 115%
Second compound 0.1 µM, first compound 3.16 µM
  viability, T/C: 88.3%
Second compound 0.1 µM, first compound 10 µM
  viability, T/C: 93.3%
[17]
  viability, T/C: 96.6%
[18]
  viability, T/C: 101%
[19]
  viability, T/C: 117%
[20]
  viability, T/C: 117%
Second compound 0.316 µM, first compound 3.16 µM
  viability, T/C: 103%
Second compound 0.316 µM, first compound 10 µM
  viability, T/C: 98.7%
[21]
  viability, T/C: 99.8%
[22]
  viability, T/C: 110%
[23]
  viability, T/C: 112%
[24]
  viability, T/C: 87.1%
Second compound 1 µM, first compound 3.16 µM
  viability, T/C: 96.5%
Second compound 1 µM, first compound 10 µM
  viability, T/C: 83.2%

## O=C(c1ccc(F)c(F)c1Nc1ccc(I)cc1F)N1CC(O)([C@@H]2CCCCN2)C1 + C=CC(=O)N1CCN(c2nc(OCC3CCCN3C)nc3c(F)c(-c4nc(N)cc(C)c4C(F)(F)F)c(Cl)cc23)C(C)C1
Second compound 0.00316 µM
  IC50: 509 nM
Second compound 0.01 µM
  IC50: 618 nM
Second compound 0.0316 µM
  IC50: 648 nM
Second compound 0.1 µM
  IC50: 570 nM
Second compound 0.316 µM
  IC50: 740 nM
Second compound 1 µM
  IC50: 694 nM
Second compound 0.00316 µM, first compound 0.00316 µM
  viability, T/C: 98.1%
Second compound 0.00316 µM, first compound 0.01 µM
  viability, T/C: 87.5%
[1]
  viability, T/C: 77.2%
[2]
  viability, T/C: 72.3%
[3]
  viability, T/C: 63.5%
[4]
  viability, T/C: 36.4%
Second compound 0.01 µM, first compound 0.00316 µM
  viability, T/C: 78.5%
Second compound 0.01 µM, first compound 0.01 µM
  viability, T/C: 80.9%
[5]
  viability, T/C: 71.2%
[6]
  viability, T/C: 75.8%
[7]
  viability, T/C: 62.9%
[8]
  viability, T/C: 40.3%
Second compound 0.0316 µM, first compound 0.00316 µM
  viability, T/C: 94.6%
Second compound 0.0316 µM, first compound 0.01 µM
  viability, T/C: 75.3%
[9]
  viability, T/C: 76.3%
[10]
  viability, T/C: 70.3%
[11]
  viability, T/C: 66.5%
[12]
  viability, T/C: 40.8%
Second compound 0.1 µM, first compound 0.00316 µM
  viability, T/C: 95.9%
Second compound 0.1 µM, first compound 0.01 µM
  viability, T/C: 70.3%
[13]
  viability, T/C: 85.1%
[14]
  viability, T/C: 72.2%
[15]
  viability, T/C: 63.5%
[16]
  viability, T/C: 38.2%
Second compound 0.316 µM, first compound 0.00316 µM
  viability, T/C: 84%
Second compound 0.316 µM, first compound 0.01 µM
  viability, T/C: 82.6%
[17]
  viability, T/C: 78.6%
[18]
  viability, T/C: 76.2%
[19]
  viability, T/C: 68%
[20]
  viability, T/C: 43.6%
Second compound 1 µM, first compound 0.00316 µM
  viability, T/C: 70.2%
Second compound 1 µM, first compound 0.01 µM
  viability, T/C: 71.1%
[21]
  viability, T/C: 71.3%
[22]
  viability, T/C: 77.2%
[23]
  viability, T/C: 63.5%
[24]
  viability, T/C: 42.7%
